Source: patent US20240216357A1 (SICHUAN HUIYU PHARMACEUTICAL CO., LTD., priority 2021, published 2024)
Counter-ions that a name gives are not always drawn. Like-named read-outs stand apart in the source and are kept apart here.

Assays:
LSD1 = LSD1 (Homo sapiens (Human), UniProt O60341); experiment: LSD1 enzyme activity detection (HTRF); assay type: biochemical
NCI-H1417 cells = experiment: In vitro cell proliferation detection (CellTiter-Glo, 7 days); assay type: cell-based
[1] = read-out: Inhibition of enzymatic activity of LSD1 IC50
[2] = HTRF, H3K4me1 substrate, read-out: Inhibition of enzymatic activity of LSD1 IC50
[3] = Homo sapiens, 168 h, NCI-H1417 cells, 7 days, CellTiter-Glo, read-out: NCI-H1417 proliferation inhibition IC50

| Compound | IC50 (LSD1; [2]) | IC50 (NCI-H1417 cells; [3]) | also measured |
| --- | --- | --- | --- |
| 5′-(4-aminopiperidin-1l-yl)-3-fluoro-3′,3′-dihydroxy-4′-methyl-[1,1′:2′,1′-triphenyl]-4-carbonitrile [Example 266] |  |  | IC50 (LSD1; [1]): 0.7 ± 0.004 nM; IC50 (NCI-H1417 cells; read-out: NCI-H1417 proliferation inhibition IC50): 0.48 nM |
| CS(=O)(=O)N1CCN(C(=O)c2cc(CN[C@@H]3C[C@H]3c3ccc(F)cc3)nc(-c3ccccc3)n2)CC1 [Example 1] | 186 ± 69.6 nM |  | IC50 (NCI-H1417 cells; NCI-H1417 cells, 7 days, CellTiter-Glo, read-out: NCI-H1417 proliferation inhibition IC50): 11.3 nM |
| Cc1ccc(-c2c(-c3ccc(C#N)cc3)cc3c(N4CCC[C@@H](N)C4)nccn23)cc1 [Example 3, (R)-4-(1-(3-aminopiperidin-1-yl)-6-(p-tolyl)pyrrolo[1,2-a]pyrazine-7-yl)benzonitrile] | 0.8 ± 0.08 nM | 34.2 nM |  |
| Cc1ccc(-c2c(-c3ccc(C#N)cc3)cc3c(N4CCC[C@@H](N)C4)nncn23)cc1 [Example 4, (R)-4-(1-(3-aminopiperidin-1-yl)-6-(p-tolyl)pyrrolo[1,2-d] [1,2,4]triazine-7-yl)benzonitrile] | 2.3 ± 0.74 nM | 30.4 nM |  |
| Cc1ccc(-c2sc(C(=O)N3C4CCC3CC(N)C4)cc2-c2ccc(C#N)c(F)c2)c(F)c1 (stereo not shown) [Example 6, 4-(5-(3-amino-8-azabicyclo[3.2.1]octane-8-carbonyl)-2-(2-fluoro-4-methylphenyl)thiophen-3-yl)-2-fluorobenzonitrile hydrochloride] | 0.3 ± 0.25 nM | 3.64 nM |  |
| Cc1ccc(-c2sc(CN3C4CCC3CC(N)C4)cc2-c2ccc(C#N)c(F)c2)c(F)c1 (stereo not shown) [Example 7, 4-(5-((3-amino-8-azabicyclo[3.2.1]octane-8-yl)methyl)-2-(2-fluoro-4-methylphenyl)thiophen-3-yl)-2-fluorobenzonitrile trifluoroacetate] |  | 46.4 nM | IC50 (LSD1): 0.4 ± 0.29 nM |
| CCCCCc1noc2cc(-c3sc(C(=O)N4C5CCC4CC(N)C5)cc3-c3ccc(C#N)c(F)c3)c(F)cc12 (stereo not shown) [Example 8, 4-(5-(3-amino-8-azabicyclo[3.2.1]octane-8-carbonyl)-2-(5-fluoro-3-pentylbenzo[d]isoxazol-6-yl)thiophen-3-yl)-2-fluorobenzonitrile] | 0.3 ± 0.04 nM | 6.94 nM |  |
| Cc1ccc(-c2c(-c3ccc(C#N)cc3)cc3c(N4CCC[C@@H](N)C4)cccn23)cc1 [Example 10, (R)-4-(8-(3-aminopiperidin-1-yl)-3-(p-tolyl)indolizin-2-yl)benzonitrile hydrochloride] |  |  | IC50 (LSD1; [1]): 79.1 ± 18.9 nM; IC50 (NCI-H1417 cells; Homo sapiens, NCI-H1417, 168 h, read-out: NCI-H1417 proliferation inhibition IC50(nM)): 371 nM |
| COc1ccc(-c2c(O)cc(N3C4CCC3CC(N)C4)nc2-c2ccc(C#N)c(F)c2)cc1F (stereo not shown) [Example 14, 4-(6-(3-amino-8-azabicyclo[3.2.1]octane-8-yl)-3-(3-fluoro-4-methoxyphenyl)-4-hydroxypyridin-2-yl)-2-fluorobenzonitrile] | 13.8 nM | 64.9 nM |  |
| COc1ccc(-c2c(O)cc(N3CCN(C)CC3)nc2-c2ccc(C#N)c(F)c2)cc1F [Example 15, 2-fluoro-4-(3-(3-fluoro-4-methoxyphenyl)-4-hydroxy-6-(4-methylpiperazin-1-yl)pyridin-2-yl)benzonitrile] | 49.9 nM | 104 nM |  |
| CNC1CCCN(c2cc(O)c(-c3ccc(OC)c(F)c3)c(-c3ccc(C#N)c(F)c3)n2)C1 (stereo not shown) [Example 16, 2-fluoro-4-(3-(3-fluoro-4-methoxyphenyl)-4-hydroxy-6-(3-(methylamino)piperidin-1-yl)pyridin-2-yl)benzonitrile] | 15.2 ± 3.7 nM | 38 nM |  |
| N#Cc1ccc(-c2nc(N3CCC(N)CC3)cc(O)c2-c2ccn3ccnc3c2)cc1F [Example 17, 4-(6-(4-aminopiperidin-1-yl)-4-hydroxy-3-(imidazolo[1,2-a]pyridin-7-yl)pyridin-2-yl)-2-fluorobenzonitrile hydrochloride] | 19.4 nM | > 1000 nM |  |
| COc1ccc(-c2c(-c3ccc(C#N)c(F)c3)nc(N3CCC(N)CC3)c3c2cnn3C)cc1O [Example 285, 4-(7-(4-aminopiperidin-1-yl)-4-(3-hydroxy-4-methoxyphenyl)-1-methyl-1H-pyrazolo[3,4-c]pyridin-5-yl)-2-fluorobenzonitrile] |  | 2.16 nM |  |
